One experiment deals with T1, hA1 (Homo sapiens, UniProt P30542).
T1 sequence (P30542 1-326): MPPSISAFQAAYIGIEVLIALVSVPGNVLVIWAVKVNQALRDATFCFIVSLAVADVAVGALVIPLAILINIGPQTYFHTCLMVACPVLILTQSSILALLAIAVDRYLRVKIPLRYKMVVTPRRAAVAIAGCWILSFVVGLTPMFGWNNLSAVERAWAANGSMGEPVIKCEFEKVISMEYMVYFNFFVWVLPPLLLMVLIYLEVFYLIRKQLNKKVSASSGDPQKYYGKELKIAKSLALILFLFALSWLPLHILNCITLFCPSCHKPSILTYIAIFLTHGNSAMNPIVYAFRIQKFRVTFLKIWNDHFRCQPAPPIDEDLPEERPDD
Description: hA1 receptor affinity (Ki). The settings on record: list of examples 10-108. It counts as binding.

Experiment [1] deals with T2, human adenosine A2A receptor (Homo sapiens, UniProt P29274).
T2 construct: expressed in transfected cells; host or cells: CHO cells, semliki forest virus expression system; washed membranes
T2 sequence (P29274 whole entry): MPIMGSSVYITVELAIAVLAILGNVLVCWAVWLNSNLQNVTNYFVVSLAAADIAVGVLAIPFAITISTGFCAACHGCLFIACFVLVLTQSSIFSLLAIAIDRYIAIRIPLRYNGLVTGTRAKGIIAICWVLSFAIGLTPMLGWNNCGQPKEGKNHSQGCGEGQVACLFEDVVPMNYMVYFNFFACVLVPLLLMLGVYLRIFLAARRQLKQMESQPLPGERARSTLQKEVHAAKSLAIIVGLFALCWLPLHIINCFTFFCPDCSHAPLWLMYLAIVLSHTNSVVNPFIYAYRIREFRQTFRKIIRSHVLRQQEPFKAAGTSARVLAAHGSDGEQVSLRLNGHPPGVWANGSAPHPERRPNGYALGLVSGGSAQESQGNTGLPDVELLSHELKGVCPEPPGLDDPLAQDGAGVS
The experiment can be described thus: [3H]-SCH-58261 binding assay, human adenosine A2A receptor (CHO cell membranes, SPA). Conditions: for Ki: [3H]-SCH-58261 displacement, read-out: hA2a Ki; for Select. A1/A2a: ratio hA1 Ki / hA2a Ki.

The mark [2] stands for this setting: Ki by Cheng-Prussoff, table of preferred compounds.

Where two headings read alike, the source gives them in different places.

As to `COCC1CCCN1C(=O)c1cc(N)c2nc(-c3ccco3)nn2c1` (stereo in doubt) [Example 41, (8-Amino-2-furan-2-yl-[1,2,4]triazolo[1,5-a]pyridin-6-yl)-(2-R-methoxymethyl-pyrrolidin-1-yl)-methanone], the figures for the Ki (at hA1; in experiment [1] (setting [2])) were 4360 nM and 77.6 nM, respectively. Further, the “Select. A1/A2a” value in experiment [1] amounted to 56.2.

Consider `CN(C)C(=O)[C@@H]1CCCN1C(=O)c1cc(N)c2nc(-c3ccc(Br)o3)nn2c1` [Example 18, 1-[8-Amino-2-(5-bromo-furan-2-yl)-[1,2,4]triazolo[1,5-a]pyridine-6-carbonyl]-pyrrolidine-2-carboxylic acid (S)-dimethylamide], for which the Ki is 1110 nM on hA1 and 67 nM in experiment [1] (setting [2]). Also, the “Select. A1/A2a” value in experiment [1] is recorded as 16.5.

As to `CN(CCC#N)C(=O)c1cc(N)c2nc(-c3ccc(Br)o3)nn2c1` [Example 24, 8-Amino-2-(5-bromo-furan-2-yl)-[1,2,4]triazolo[1,5-a]pyridine-6-carboxylic acid (2-cyano-ethyl)-methyl-amide], the Ki was 830 nM on hA1 and 111 nM in experiment [1] (list of examples 10-108). For the same compound, in experiment [1], the “Select. A1/A2a” value was found to be 7.5.

As for `CC1CCCN1C(=O)c1cc(N)c2nc(-c3ccco3)nn2c1` (stereo not drawn) [Example 37, (8-Amino-2-furan-2-yl-[1,2,4]triazolo[1,5-a]pyridin-6-yl)-(2-methyl-pyrrolidin-1-yl)-methanone], the results for the Ki (at hA1; in experiment [1] (setting [2])) were 2940 nM and 34.9 nM, respectively. Besides, the “Select. A1/A2a” value in experiment [1] was found to be 84.2.

As to `CC1CCCCN1C(=O)c1cc(N)c2nc(-c3ccco3)nn2c1` (stereo not drawn) [Example 39, (8-Amino-2-furan-2-yl-[1,2,4]triazolo[1,5-a]pyridin-6-yl)-(2-methyl-piperidin-1-yl)-methanone], the Ki on hA1 turned out to be 2190 nM; in experiment [1] (list of examples 10-108), 136 nM. Further, in experiment [1], the “Select. A1/A2a” value turned out to be 16.1.

In the case of `COC[C@H]1CCCN1C(=O)c1cc(N)c2nc(-c3ccco3)nn2c1` [Example 42, (8-Amino-2-furan-2-yl-[1,2,4]triazolo[1,5-a]pyridin-6-yl)-(2-S-methoxymethyl-pyrrolidin-1-yl)-methanone], the Ki stood at 5630 nM at hA1 and 69.4 nM in experiment [1] (setting [2]). For the same compound, in experiment [1], the “Select. A1/A2a” value was 81.1.

Take `NC(=O)[C@H]1CCCN1C(=O)c1cc(N)c2nc(-c3ccco3)nn2c1` [Example 43, 1-(8-Amino-2-furan-2-yl-[1,2,4]triazolo[1,5-a]pyridine-6-carbonyl)-pyrrolidine-2-R-carboxylic acid amide]: the Ki on hA1 stood at 2330 nM; in experiment [1] (list of examples 10-108), 138 nM. Moreover, the “Select. A1/A2a” value in experiment [1] is given as 16.9.

In the case of `CC1CCCN(C(=O)c2cc(N)c3nc(-c4ccco4)nn3c2)C1` (stereo not drawn) [Example 46, (8-Amino-2-furan-2-yl-[1,2,4]triazolo[1,5-a]pyridin-6-yl)-(3-methyl-piperidin-1-yl)-methanone], the values for the Ki (at hA1; in experiment [1] (list of examples 10-108)) were 2690 nM and 131 nM, respectively. Moreover, the “Select. A1/A2a” value in experiment [1] amounted to 20.4.

Take `Nc1cc(C(=O)N(Cc2ccccc2)Cc2ccccc2)cn2nc(-c3ccco3)nc12` [Example 48, 8-Amino-2-furan-2-yl-[1,2,4]triazolo[1,5-a]pyridine-6-carboxylic acid dibenzylamide]: the values for the Ki (at hA1; in experiment [1] (list of examples 10-108)) were 247 nM and 32.7 nM, respectively. In addition, the “Select. A1/A2a” value in experiment [1] came to 7.5.

In the case of `Nc1cc(C(=O)N(Cc2ccccc2)Cc2ccccc2)cn2nc(-c3cccs3)nc12` [Example 64, 8-Amino-2-thiophen-2-yl-[1,2,4]triazolo[1,5-a]pyridine-6-carboxylic acid dibenzylamide], the Ki amounted to 311 nM on hA1 and 83 nM in experiment [1] (setting [2]). For the same compound, in experiment [1], the “Select. A1/A2a” value was found to be 3.7.

As to `Cc1ccc(-c2nc3c(N)cc(C(=O)N4CCCC4C)cn3n2)o1` (stereo not drawn) [Example 85, [8-Amino-2-(5-methyl-furan-2-yl)-[1,2,4]triazolo[1,5-a]pyridin-6-yl]-(2-methyl-pyrrolidin-1-yl)-methanone], the Ki on hA1 amounted to 1360 nM; in experiment [1] (setting [2]), 75.2 nM. For the same compound, in experiment [1], the “Select. A1/A2a” value is listed as 18.1.

In the case of `Cc1ccc(-c2nc3c(N)cc(C(=O)N4CCCC(C)C4)cn3n2)o1` (stereo not drawn) [Example 88, [8-Amino-2-(5-methyl-furan-2-yl)-[1,2,4]triazolo[1,5-a]pyridin-6-yl]-(3-methyl-piperidin-1-yl)-methanone], the Ki was found to be 1350 nM on hA1 and 56.2 nM in experiment [1] (setting [2]). Also, in experiment [1], the “Select. A1/A2a” value was found to be 24.

For the origin of these results see US6689790B2, “Substituted triazolopyridine compounds” (Hoffmann-La Roche Inc., priority 2001, dated 2004).
